Where two headings read alike, the source gives them in different places.
Assay: Tigecycline plasma PK and % F after PO enteric-coated capsule in dogs
Format: in vivo, Beagle dogs
Conditions: for concentration at 0 min: Time (min) 0.0; for concentration at 0.3 min: Time (min) 0.3; for concentration at 0.7 min: Time (min) 0.7; for concentration at 24 min: Time (min) 24.0; for Predicted AUC(0-t), % Difference / Predicted Mean Cmax, % Difference: observed vs predicted from 15 mg results; for Predicted AUC(0-t) / Predicted Mean Cmax: predicted from 15 mg results
Method: Adult beagle dogs weighing approximately 9 to 15 kg were used in the study. […] Room temperature was set to be maintained between approximately 20±5° C. Relative humidity was monitored but not controlled.
TEKLAD™ Certified Canine Diet was provided once daily in amounts (˜400 grams) appropriate for the size and age of the animals. Tap water was available ad libitum via automatic watering device or water bowls.
Oral dosing of enteric-coated capsules was accomplished by administering them to the back of the dog's mouth, followed by a chase of 5 mL water to ensure swallowing.
Water was provided ad libitum. […] Subsequently, each group of animals was dosed based on the protocol, i.e. either IV, or PO by capsule.
Minocycline (VWR international) was used as an internal standard. Sample processing/clean-up of plasma samples was carried out offline by protein precipitation with acidified acetonitrile using 0.5% trifluoroacetic acid (TFA).
The HPLC system consisted of Shimadzu SIL-HTc HPLC system equipped with dual Shimadzu LC-10ADvp isopumps, a Shimadzu CTO-10ASvp column temperature controller and a Shimadzu SPD-10Avp variable wavelength detector. […] Mobile phase A consisted of 23 mM phosphate buffer pH 2.5 with 4 mM 1-octanesulfonic acid, while mobile phase B consisting of 90% acetonitrile, 10% water, with 2 mM 1-octanesulfonic acid. […] The total runtime was 18 minutes per sample. The mobile phase flow rate was 1.2 mL/min. Detection was performed using the SPD-10Avp variable wavelength detector set at 350 nm, with a sensitivity of 0.001 aufs.
The samples were then centrifuged under refrigeration at 13 k rpm for 5 minutes. The supernatant was taken and the liquid removed to dryness under nitrogen in a turbovap. The dried extract was reconstituted in 60 μL of mobile phase A and the suspension was further centrifuged at 5 k rpm for 5 minutes to pellet any insoluble matter. The resulting supernatant was then injected onto the LC.
The unknown concentration in dog plasma samples was determined by interpolation of the peak area ratios of analyte:internal standard versus the ratio of their nominal concentrations into the regression line obtained from calibration standards spiked in pooled dog plasma. No regression weighting was used for the calculations. […] The calibration curve covered the range of 0.05 μg/mL to 5 μg/mL. […]
The capsules were enterically coated using a standard preclinical protocol to 10% weight gain. Two studies were conducted.

[1] = female, beagle, dog, plasma, po, 45 mg, Tigecycline Plasma Concentration, PO 45 mg enteric-coated capsule with 500 mg CA and 100 mg LLC, SC430, individual dogs
[2] = female, beagle, dog, plasma, po, 45 mg, Tigecycline Plasma Concentration, PO 45 mg enteric-coated capsule with 500 mg CA and 100 mg LLC, SC430, mean

## CN(C)c1cc(NC(=O)CNC(C)(C)C)c(O)c2c1C[C@H]1C[C@H]3[C@H](N(C)C)C(O)=C(C(N)=O)C(=O)[C@@]3(O)C(O)=C1C2=O [Tigecycline]
female, beagle, dog, plasma, po, 45 mg, 45 mg Formulated (500 mg CA, 100 mg LLC) enteric coated capsule, Study 2 (SC430), mean (% CV), read-out: Tmax (converted)
  Tmax: 1.67 h
female, beagle, dog, plasma, po, 45 mg, PO 45 mg enteric-coated capsule with 500 mg CA and 100 mg LLC (SC430), read-out: AUC(0-t), mean
  AUC(0-t): 0.574 µg·h/mL
female, beagle, dog, plasma, po, 45 mg, PO 45 mg enteric-coated capsule with 500 mg CA and 100 mg LLC (SC430), read-out: Cmax, mean
  Cmax: 0.177 µg/mL
female, beagle, dog, plasma, po, 45 mg, PO 45 mg enteric-coated capsule with 500 mg CA and 100 mg LLC (SC430), read-out: absolute % F, mean
  bioavailability: 15.5%
female, beagle, dog, plasma, po, 45 mg, PO 45 mg enteric-coated capsule with 500 mg CA and 100 mg LLC ([…]), SC430, mean, read-out: AUC(0-t)
  AUC(0-t): 0.574 µg·h/mL
female, beagle, dog, plasma, po, 45 mg, PO 45 mg enteric-coated capsule with 500 mg CA and 100 mg LLC ([…]), SC430, mean, read-out: Cmax
  Cmax: 0.177 µg/mL
female, beagle, dog, plasma, po, 45 mg, PO 45 mg enteric-coated capsule with 500 mg CA and 100 mg LLC ([…]), SC430, mean, read-out: Tmax (converted)
  Tmax: 1.67 h
female, beagle, dog, plasma, po, 45 mg, PO 45 mg enteric-coated capsule with 500 mg CA and 100 mg LLC, SC430, calculated from IV PK data of SC431, mean, read-out: % F
  bioavailability: 15.5%
female, beagle, dog, plasma, po, 45 mg, Study 2 (SC430), 45 mg Formulated enteric coated capsule (500 mg citric acid, 100 mg LLC), oral, dogs, N=5, mean (% CV), based on that study's IV arm, read-out: % F
  bioavailability: 15.5%
female, beagle, dog, plasma, po, 45 mg, Study 2 (SC430), 45 mg Formulated enteric coated capsule (500 mg citric acid, 100 mg LLC), oral, dogs, N=5, mean (% CV), read-out: Tmax (converted)
  Tmax: 1.67 h
female, beagle, dog, plasma, po, 45 mg, Study 2 (SC430), 45 mg Formulated enteric coated capsule (500 mg citric acid, 100 mg LLC), oral, dogs, N=5, mean (% CV), sampling 24 h, read-out: AUC(0-t)
  AUC(0-t): 0.574 µg·h/mL
female, beagle, dog, plasma, po, 45 mg, Study 2 (SC430), 45 mg Formulated enteric coated capsule (500 mg citric acid, 100 mg LLC), oral, dogs, N=5, mean (% CV), sampling 24 h, read-out: Cmax
  Cmax: 0.177 µg/mL
[1]
  concentration at 0 min: 0 µg/mL
  concentration at 0.3 min: 0 µg/mL
  concentration at 0.7 min: 0 µg/mL
  concentration at 24 min: 0 µg/mL
[2]
  concentration at 0 min: 0 µg/mL
  concentration at 0.3 min: 0 µg/mL
  concentration at 0.7 min: 0 µg/mL
  concentration at 24 min: 0 µg/mL
female, beagle, dog, plasma, po, 45 mg, Tigecycline Plasma Concentration, Time (min) 1.0, PO 45 mg enteric-coated capsule with 500 mg CA and 100 mg LLC, SC430, mean
  concentration at 1 min: 0.0564 µg/mL
female, beagle, dog, plasma, po, 45 mg, Tigecycline Plasma Concentration, Time (min) 1.3, PO 45 mg enteric-coated capsule with 500 mg CA and 100 mg LLC, SC430, mean
  concentration at […]: 0.0583 µg/mL
female, beagle, dog, plasma, po, 45 mg, Tigecycline Plasma Concentration, Time (min) 1.7, PO 45 mg enteric-coated capsule with 500 mg CA and 100 mg LLC, SC430, mean
  concentration at […]: 0.101 µg/mL
female, beagle, dog, plasma, po, 45 mg, Tigecycline Plasma Concentration, Time (min) 2.0, PO 45 mg enteric-coated capsule with 500 mg CA and 100 mg LLC, SC430, mean
  concentration at 2 min: 0.144 µg/mL
female, beagle, dog, plasma, po, 45 mg, Tigecycline Plasma Concentration, Time (min) 2.3, PO 45 mg enteric-coated capsule with 500 mg CA and 100 mg LLC, SC430, mean
  concentration at […]: 0.108 µg/mL
female, beagle, dog, plasma, po, 45 mg, Tigecycline Plasma Concentration, Time (min) 2.7, PO 45 mg enteric-coated capsule with 500 mg CA and 100 mg LLC, SC430, mean
  concentration at […]: 0.0986 µg/mL
female, beagle, dog, plasma, po, 45 mg, Tigecycline Plasma Concentration, Time (min) 3.0, PO 45 mg enteric-coated capsule with 500 mg CA and 100 mg LLC, SC430, mean
  concentration at 3 min: 0.0765 µg/mL
female, beagle, dog, plasma, po, 45 mg, Tigecycline Plasma Concentration, Time (min) 3.3, PO 45 mg enteric-coated capsule with 500 mg CA and 100 mg LLC, SC430, mean
  concentration at […]: 0.0687 µg/mL
female, beagle, dog, plasma, po, 45 mg, Tigecycline Plasma Concentration, Time (min) 3.7, PO 45 mg enteric-coated capsule with 500 mg CA and 100 mg LLC, SC430, mean
  concentration at […]: 0.062 µg/mL
female, beagle, dog, plasma, po, 45 mg, Tigecycline Plasma Concentration, Time (min) 4.0, PO 45 mg enteric-coated capsule with 500 mg CA and 100 mg LLC, SC430, mean
  concentration at 4 min: 0.0517 µg/mL
female, beagle, dog, plasma, po, 45 mg, Tigecycline Plasma Concentration, Time (min) 4.5, PO 45 mg enteric-coated capsule with 500 mg CA and 100 mg LLC, SC430, mean
  concentration at […]: 0.0489 µg/mL
female, beagle, dog, plasma, po, 45 mg, Tigecycline Plasma Concentration, Time (min) 5.0, PO 45 mg enteric-coated capsule with 500 mg CA and 100 mg LLC, SC430, mean
  concentration at 5 min: 0.0506 µg/mL
female, beagle, dog, plasma, po, 45 mg, Tigecycline Plasma Concentration, Time (min) 5.5, PO 45 mg enteric-coated capsule with 500 mg CA and 100 mg LLC, SC430, mean
  concentration at […]: 0.0425 µg/mL
female, beagle, dog, plasma, po, 45 mg, Tigecycline Plasma Concentration, Time (min) 6.0, PO 45 mg enteric-coated capsule with 500 mg CA and 100 mg LLC, SC430, mean
  concentration at 6 min: 0.0352 µg/mL
female, beagle, dog, plasma, po, 45 mg, Tigecycline Plasma Concentration, Time (min) 8.0, PO 45 mg enteric-coated capsule with 500 mg CA and 100 mg LLC, SC430, mean
  concentration at 8 min: 0.0229 µg/mL
female, beagle, dog, plasma, po, 45 mg, Tigecycline Plasma Concentration, Time (min) 10.0, PO 45 mg enteric-coated capsule with 500 mg CA and 100 mg LLC, SC430, mean
  concentration at 10 min: 0.0168 µg/mL
female, beagle, dog, plasma, po, 45 mg, target dose 45 mg, enterically coated capsule, read-out: Observed Mean Cmax
  Cmax: 0.177 µg/mL
female, beagle, dog, plasma, po, 45 mg, target dose 45 mg, enterically coated capsule, time scale adjusted to 4 hours, read-out: Observed AUC(0-t)
  AUC(0-t): 0.266 µg·h/mL
female, beagle, dog, plasma, po, all studied oral formulations, read-out: Tmax, mean (converted)
  Tmax: ~1.67 h
Target dose 30 mg
  Predicted AUC(0-t), % Difference: −23.9%
  Predicted Mean Cmax, % Difference: −24.8%
  Predicted AUC(0-t): 0.265 µg·h/mL
  Predicted Mean Cmax: 0.151 µg/mL
Target dose 45 mg
  Predicted AUC(0-t), % Difference: −49.4%
  Predicted Mean Cmax, % Difference: −28.0%
  Predicted AUC(0-t): 0.398 µg·h/mL
  Predicted Mean Cmax: 0.226 µg/mL

— patent US9526785B2, “Pharmaceuticals for oral delivery” (Enteris BioPharma, Inc., priority 2013, dated 2016)
